Among the data in PubChem BioAssay AID588577 (Sanford-Burnham Center for Chemical Genomics, 2011) are IC50 values, retold here.

Activity calls are given as the source filed them. The rule behind the calls is not given here.

The target of this test is Caspase-3 (Homo sapiens) + Caspase-9 (Homo sapiens) (UniProt P42574+P55211). The test can be described thus: caspase-9/caspase-3 cascade inhibitors, SAR follow-up, selectivity assay for Apaf-1 inhibitor project, biochemical, fluorescence (AID 588577). The settings on record: recombinant LZ-caspase-9 activating caspase-3, fluorogenic substrate.
Sequence of Caspase-3 (Homo sapiens) + Caspase-9 (Homo sapiens) (P42574 whole entry, looked up): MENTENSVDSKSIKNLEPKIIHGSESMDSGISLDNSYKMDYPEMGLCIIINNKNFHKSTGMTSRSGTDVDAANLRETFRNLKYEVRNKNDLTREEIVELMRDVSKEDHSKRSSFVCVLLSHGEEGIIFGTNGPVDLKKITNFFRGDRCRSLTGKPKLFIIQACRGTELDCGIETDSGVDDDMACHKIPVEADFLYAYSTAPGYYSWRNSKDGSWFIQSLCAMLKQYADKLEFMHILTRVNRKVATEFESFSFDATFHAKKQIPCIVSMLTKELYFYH
Sequence of Caspase-3 (Homo sapiens) + Caspase-9 (Homo sapiens) (P55211 whole entry, looked up): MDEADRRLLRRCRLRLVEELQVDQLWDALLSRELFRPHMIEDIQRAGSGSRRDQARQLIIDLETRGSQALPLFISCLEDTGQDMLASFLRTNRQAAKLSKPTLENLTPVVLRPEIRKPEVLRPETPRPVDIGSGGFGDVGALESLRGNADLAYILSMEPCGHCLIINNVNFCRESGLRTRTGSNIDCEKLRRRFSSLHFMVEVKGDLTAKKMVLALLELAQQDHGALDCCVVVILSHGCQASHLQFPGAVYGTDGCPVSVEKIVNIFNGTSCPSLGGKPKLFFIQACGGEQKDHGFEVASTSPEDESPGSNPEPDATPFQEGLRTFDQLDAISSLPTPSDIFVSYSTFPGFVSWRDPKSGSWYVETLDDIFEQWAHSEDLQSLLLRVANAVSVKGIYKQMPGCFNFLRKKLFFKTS

As for `Cn1cc(C(CC(=O)c2ccc(C3CCCCC3)cc2)C(=O)O)c2ccccc21` (stereo not given), the IC50 was 98.8 µM. To `CCN(CC)CCOC(=O)c1ccc(N/C=C(/C#N)c2nc(-c3ccc4c(c3)OCO4)cs2)cc1` belongs > 100 µM (inactive). As for `Cc1ccc2c(c1)C(=O)c1nc3ccccc3c(=O)n1-2`, the IC50 was > 100 µM (inactive). To `O=C(Nc1ccc2nc(-c3cccs3)[nH]c2c1)c1cccs1` belongs > 100 µM (inactive); to `Cc1nc2ccc(-c3nc4ccc(NC(=O)c5cccs5)cc4[nH]3)cc2[nH]1`, > 100 µM (inactive). Under `Cn1cc(C(CC(=O)c2ccc(C(C)(C)C)cc2)C(=O)O)c2ccccc21` (stereo not given) stands 85.3 µM. For `O=C(Nc1ccc2c(c1)C(=O)NC2=O)c1nc2ccccc2s1`, the IC50 is > 100 µM (inactive). With `CCN(CC)CCOC(=O)c1ccc(N/C=C(/C#N)c2nc(-c3cc4ccccc4oc3=O)cs2)cc1`, the IC50 is > 100 µM (inactive).

As to `Cc1ccc(-c2nc3ccc(NC(=O)c4cccs4)cc3[nH]2)o1`, the IC50 is > 100 µM (inactive). To `CCN(CC)CCOC(=O)c1ccc(N/C=C(/C#N)c2nc(-c3ccc(OC)c(OC)c3)cs2)cc1` belongs > 100 µM (inactive); to `CC(=O)c1ccc(C(=O)Nc2ccc3nc(C)[nH]c3c2)s1`, > 100 µM (inactive); to `O=C(Nc1ccc2nc(-c3ccc(Br)o3)[nH]c2c1)c1cccs1`, > 100 µM (inactive). Under `CCN(CC)CCOC(=O)c1ccc(N/C=C(\C#N)c2nc(-c3ccc(Br)cc3)cs2)cc1` stands > 100 µM (inactive). On to `CCN(CC)CCOC(=O)c1ccc(N/C=C(\C#N)c2nc(-c3cccs3)cs2)cc1`, for which the IC50 was > 100 µM (inactive).

For the molecule `Cc1cc(NC(=O)C2CC2)sc1C(=O)Nc1ccc2nc(-c3cc(F)ccc3F)[nH]c2c1`, the IC50 was 89.7 µM.

`CCN(CC)CCOC(=O)c1ccc(N/C=C(\C#N)c2nc(-c3ccc(Cl)c(Cl)c3)cs2)cc1`: the IC50 was 72 µM. Under `O=C1c2cc(Cl)ccc2-n2c1nc1ccccc1c2=O` stands 89.6 µM; under `COc1ccc(N2C(=O)CC3(CC(c4ccc(F)cc4)=NO3)C2=O)cc1` (stereo not given), 37.5 µM. To `CCN(CC)CCOC(=O)c1ccc(N/C=C(/C#N)c2nc(-c3ccc(OC)cc3)cs2)cc1` belongs > 100 µM (inactive); to `O=C(Nc1ccc(-c2nc3ccc(NC(=O)c4cccs4)cc3[nH]2)cc1)c1cccs1`, > 100 µM (inactive).
